No end group written: not given here.
Key:
Type in all cases: cell-based
[1] = system: Pseudomonas aeruginosa, OT97; experiment: Antibacterial lethal concentration, thin agarose plates
Protocol: (§1) The polypetide obtained in Example 2 was tested for antibacterial activity against different bacteria, the activity being given as lethal concentrations in micro-moles per liter (μM).
(§2) The four last strains of E. coli were obtained from Olof Soderlind, SVA, Uppsala and they are clinical isolates that are pathogenic to piglets. Typing of O and K antigens are indicated after the strain number. Lethal concentration is the lowest concentration of cecropin that inhibits growth of the respective bacteria in thin agarose plates (see Hultmark, D. et al. EMCO J. 2, 571-576 (1983).

[2] = system: Escherichia coli Bd4468/84, O64, K99; experiment: as above; conditions: clinical isolate pathogenic to piglets
Protocol: as §1, §2

[3] = system: Proteus vulgaris, Pv11; experiment: as above
Protocol: as §1, §2

[4] = system: Escherichia coli Bd4462/84, O101, K99; experiment: as above; conditions: clinical isolate pathogenic to piglets
Protocol: as §1, §2

[5] = system: Escherichia coli K12, D21; experiment: as above; conditions: lowest concentration that inhibits growth in thin agarose plates
Protocol: as §1, §2

[6] = system: Salmonella typhimurium, LT2; experiment: as above
Protocol: as §1, §2

[7] = system: Streptococcus pyogenes; experiment: as above
Protocol: as §1, §2

[8] = system: Staphylococcus aureus, Cowan 1; experiment: as above
Protocol: as §1, §2

[9] = system: Bacillus megaterium, Bm11; experiment: as above
Protocol: as §1, §2

[10] = system: Escherichia coli 853/67, 0149, K88; experiment: as above; conditions: clinical isolate pathogenic to piglets
Protocol: as §1, §2

[11] = system: Acinetobacter calcoaceticus, Ac11; experiment: as above
Protocol: as §1, §2

[12] = system: Escherichia coli Bd2221/75, O8, K88; experiment: as above; conditions: clinical isolate pathogenic to piglets
Protocol: as §1, §2

[13] = system: bacteria; experiment: Overall comparison of antibacterial activity of the two forms; conditions: comparison of the C-terminal amide with the free-acid form (Example 3)
Protocol: as §1, §2

Substance	Antibacterial activity as lethal concentration [1]	Antibacterial activity as lethal concentration [2]	Antibacterial activity as lethal concentration [3]	Antibacterial activity as lethal concentration [4]	Antibacterial activity as lethal concentration [5]	Antibacterial activity as lethal concentration [6]	Antibacterial activity as lethal concentration [7]	Antibacterial activity as lethal concentration [8]	Antibacterial activity as lethal concentration [9]	Antibacterial activity as lethal concentration [10]	Antibacterial activity as lethal concentration [11]	Antibacterial activity as lethal concentration [12]	antibiotic quality, amidated form versus free acid [13]
SWLSKTAKKLENSAKKRISEGIAIAIQGGPR [P1-OH, H2 N-Ser-Trp-Leu-Ser-Lys-Thr-Ala-Lys-Lys-Leu-Glu-Asn-Ser-Ala-Lys-Lys-Arg-Ile- Ser-Glu-Gly-Ile-Ala-Ile-Ala-Ile-Gln-Gly-Gly-Pro-Arg-COOH]	13 µM	0.6 µM	12 µM	0.8 µM	0.4 µM	1.7 µM	44 µM	> 520 µM	5.3 µM	0.6 µM	0.5 µM	0.7 µM	
SWLSKTAKKLENSAKKRISEGIAIAIQGGPR-NH2 [P1-NH2]	5.9 µM	0.3 µM	5.7 µM	0.7 µM	0.3 µM	0.9 µM	19 µM	> 490 µM	1.8 µM	0.9 µM	0.2 µM	0.6 µM	better antibiotic

Source: patent publication US5096886A, “Antibacterial polypeptides” (Kabigen AB, priority 1989, dated 1992)
